Tests used:
lambsquarters [1] = test: Test B preemergence/postemergence greenhouse plant response rating 0 to 10; type: in vivo, Chenopodium album; details: for Plant response rating, Lambsquarter: 0 to 10 scale
Procedure, shortened: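 Test chemicals were sprayed onto freshly planted seed and, concurrently, onto young plants between the one and four leaf stage. After a twelve- to sixteen-day greenhouse period, each species was visually compared with untreated controls.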

velvetleaf = test: Test C preemergence/postemergence greenhouse plant response rating 0 to 100; type: in vivo, Abutilon theophrasti; details: for Plant response rating, Velvetleaf: 0 to 100 scale
Procedure, shortened: (§1)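 Compounds in non-phytotoxic solvent applied preemergence to sandy loam one day after planting, postemergence at the 1–4 leaf stage, or to ~2.5 cm floodwater over silt loam.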

corn = test: as above; type: in vivo, Zea mays; details: for Plant response rating, Corn: 0 to 100 scale
Procedure, shortened: as §1

umbrella sedge = test: Test C flood test plant response rating 0 to 100; type: in vivo, Cyperus difformis; details: for Plant response rating Umbrella sedge: flood test species listed under POSTEMERGENCE, 0 to 100 scale
Procedure, shortened: as §1

barley = test: Test C preemergence/postemergence greenhouse plant response rating 0 to 100; type: in vivo, Hordeum vulgare; details: for Plant response rating Barley Igri: 0 to 100 scale
Procedure, shortened: as §1

rape = test: as above; type: in vivo, Brassica napus; details: for Plant response rating, Rape: 0 to 100 scale
Procedure, shortened: as §1

lambsquarters [2] = test: as above; type: in vivo, Chenopodium album; details: for Plant response rating Lambsquarters: 0 to 100 scale
Procedure, shortened: as §1

soybean = test: as above; type: in vivo, Glycine max; details: for Plant response rating, Soybean: 0 to 100 scale; for Plant response rating (0 to 100), Soybean: Rate 4 g/ha
Procedure, shortened: as §1

C#CC(C)Oc1cc(-c2nn3c(c2Br)CCCC3)c(F)cc1Cl (stereo not drawn) [Compound 66]
Plant response rating, Lambsquarter (lambsquarters [1]; POSTEMERGENCE, Rate 50 g/ha): 10 | Plant response rating, Lambsquarter (lambsquarters [1]; PREEMERGENCE, Rate 50 g/ha): 9 | Plant response rating (0 to 10 scale), Lambsquarter (lambsquarters [1]; PREEMERGENCE, Rate 200 g/ha): 10 | Plant response rating, Lambsquarter (lambsquarters [1]; Rate 200 g/ha, POSTEMERGENCE): 10 | Plant response rating, Velvetleaf (velvetleaf; POSTEMERGENCE, 62 g/ha): 75 | Plant response rating, Velvetleaf (velvetleaf; POSTEMERGENCE, 250 g/ha): 100 | Plant response rating (0 to 100), Velvetleaf (velvetleaf; POSTEMERGENCE, Rate 4 g/ha): 60 | Plant response rating, Velvetleaf (velvetleaf; PREEMERGENCE, 250 g/ha): 100 | Plant response rating (0 to 100), Velvetleaf (velvetleaf; Rate 16 g/ha, POSTEMERGENCE): 65 | Plant response rating (0 to 100), Velvetleaf (velvetleaf; Rate 16 g/ha, PREEMERGENCE): 70 | Plant response rating, Corn (corn; POSTEMERGENCE, 62 g/ha): 40 | Plant response rating, Corn (corn; POSTEMERGENCE, 250 g/ha): 60 | Plant response rating (0 to 100), Corn (corn; POSTEMERGENCE, Rate 4 g/ha): 30 | Plant response rating, Corn (corn; PREEMERGENCE, 62 g/ha): 0 | Plant response rating, Corn (corn; PREEMERGENCE, 250 g/ha): 60 | Plant response rating (0 to 100), Corn (corn; PREEMERGENCE, Rate 4 g/ha): 0 | Plant response rating (0 to 100), Corn (corn; Rate 16 g/ha, POSTEMERGENCE): 30 | Plant response rating (0 to 100), Corn (corn; Rate 16 g/ha, PREEMERGENCE): 0 | Plant response rating (0 to 100), Umbrella sedge (umbrella sedge; POSTEMERGENCE section, flood test, Rate 4 g/ha): 0 | Plant response rating (0 to 100), Umbrella sedge (umbrella sedge; Rate 16 g/ha, under POSTEMERGENCE head (flood test species)): 0 | Plant response rating Umbrella sedge (umbrella sedge; 62 g/ha): 0 | Plant response rating Umbrella sedge (umbrella sedge; 250 g/ha): 80 | Plant response rating Barley Igri (barley; POSTEMERGENCE, 62 g/ha): 50 | Plant response rating Barley Igri (barley; POSTEMERGENCE, 250 g/ha): 60 | Plant response rating (0 to 100), Barley Igri (barley; POSTEMERGENCE, Rate 4 g/ha): 30 | Plant response rating Barley Igri (barley; PREEMERGENCE, 62 g/ha): 0 | Plant response rating Barley Igri (barley; PREEMERGENCE, 250 g/ha): 20 | Plant response rating (0 to 100), Barley Igri (barley; PREEMERGENCE, Rate 4 g/ha): 0 | Plant response rating (0 to 100), Barley Igri (barley; Rate 16 g/ha, POSTEMERGENCE): 30 | Plant response rating (0 to 100), Barley Igri (barley; Rate 16 g/ha, PREEMERGENCE): 0 | Plant response rating, Rape (rape; POSTEMERGENCE, 62 g/ha): 100 | Plant response rating, Rape (rape; POSTEMERGENCE, 250 g/ha): 100 | Plant response rating (0 to 100), Rape (rape; POSTEMERGENCE, Rate 4 g/ha): 40 | Plant response rating, Rape (rape; PREEMERGENCE, 62 g/ha): 20 | Plant response rating, Rape (rape; PREEMERGENCE, 250 g/ha): 30 | Plant response rating (0 to 100), Rape (rape; PREEMERGENCE, Rate 4 g/ha): 0 | Plant response rating (0 to 100), Rape (rape; Rate 16 g/ha, POSTEMERGENCE): 60 | Plant response rating (0 to 100), Rape (rape; Rate 16 g/ha, PREEMERGENCE): 0 | Plant response rating Lambsquarters (lambsquarters [2]; POSTEMERGENCE, 62 g/ha): 100 | Plant response rating Lambsquarters (lambsquarters [2]; POSTEMERGENCE, 250 g/ha): 100 | Plant response rating (0 to 100), Lambsquarters (lambsquarters [2]; POSTEMERGENCE, Rate 4 g/ha): 30 | Plant response rating Lambsquarters (lambsquarters [2]; PREEMERGENCE, 62 g/ha): 100 | Plant response rating Lambsquarters (lambsquarters [2]; PREEMERGENCE, 250 g/ha): 100 | Plant response rating (0 to 100), Lambsquarters (lambsquarters [2]; PREEMERGENCE, Rate 4 g/ha): 0 | Plant response rating (0 to 100), Lambsquarters (lambsquarters [2]; Rate 16 g/ha, POSTEMERGENCE): 80 | Plant response rating (0 to 100), Lambsquarters (lambsquarters [2]; Rate 16 g/ha, PREEMERGENCE): 70 | Plant response rating, Soybean (soybean; POSTEMERGENCE, 62 g/ha): 60 | Plant response rating, Soybean (soybean; POSTEMERGENCE, 250 g/ha): 70 | Plant response rating (0 to 100), Soybean (soybean; POSTEMERGENCE): 20 | Plant response rating, Soybean (soybean; PREEMERGENCE, 250 g/ha): 20 | Plant response rating (0 to 100), Soybean (soybean; PREEMERGENCE): 0

From patent US6358885B1, “Substituted phenylheterocyclic herbicides” (Mississippi State University, priority 1992, dated 2002)
